Drawing on ChEMBL document CHEMBL4813985, “Lead optimization generates selenium-containing miconazole CYP51 inhibitors with improved pharmacological profile for the treatment of fungal infections” (Eur J Med Chem, 2021), this text covers MIC and Ratio for one compound.

What all share (format): functional
Assay [1] deals with Candida albicans. Description: Antifungal activity against fluconazole-resistant Candida albicans 904 assessed as inhibition of microbial growth after 24 hrs by broth microdilution method.
Assay [2] deals with Candida albicans. The assay can be described thus: Antifungal activity against fluconazole-resistant Candida albicans 632 assessed as inhibition of microbial growth after 24 hrs by broth microdilution method.
Assay [3] deals with Candida albicans. The assay can be described thus: Antifungal activity against fluconazole-resistant Candida albicans 901 assessed as inhibition of microbial growth after 24 hrs by broth microdilution method.
The next assay deals with Pichia kudriavzevii. The assay can be described thus: Antifungal activity against Candida krusei AS2.1045 measured after 24 hrs by broth microdilution assay.
The next assay concerns [Candida] zeylanoides. The assay can be described thus: Antifungal activity against Candida zeylanoides CMGCC2.3739 measured after 24 hrs by broth microdilution assay. The following applies: Dujonia zeylanoides.
The next assay relates to Aspergillus fumigatus. The assay can be described thus: Antifungal activity against Aspergillus fumigatus CMGCC3.7795 measured after 72 hrs by broth microdilution assay.
Assay [4] has as its system Candida albicans. Description: Potency index, ratio of fluconazole MIC to test compound MIC for Candida albicans CPCC400616 measured after 24 hrs by broth microdilution assay.
Another assay relates to Nakaseomyces glabratus. Description: Antifungal activity against Candida glabrata measured after 24 hrs by broth microdilution assay.
For assay [5], the system named is Candida albicans. The assay can be described thus: Antifungal activity against Candida albicans CPCC400616 measured after 24 hrs by broth microdilution assay.
For the next assay, the system named is Candida parapsilosis. The assay can be described thus: Antifungal activity against Candida parapsilosis ATCC 22019 measured after 24 hrs by broth microdilution assay. Particulars: Lodderomyces parapsilosis.
In a further assay the test system is Cryptococcus neoformans. Description: Antifungal activity against Cryptococcus neoformans CMGCC2.3161 measured after 72 hrs by broth microdilution assay.
Assay [6] deals with Candida albicans. Description: Antifungal activity against Candida albicans ATCC SC5314 measured after 24 hrs by broth microdilution assay.
In assay [7] the test system is Candida albicans. Description: Potency index, ratio of miconazole MIC to test compound MIC for Candida albicans CPCC400616 measured after 24 hrs by broth microdilution assay.
The subject of assay [8] is Candida albicans. Description: Antifungal activity against fluconazole-resistant Candida albicans CaR assessed as inhibition of microbial growth after 24 hrs by broth microdilution method.
Assay [9] deals with Candida albicans. The assay can be described thus: Antifungal activity against fluconazole-resistant Candida albicans 17# assessed as inhibition of microbial growth after 24 hrs by broth microdilution method.

The structures appear in SMILES notation. In brackets after ≈: the same amount, converted by molar mass.

For `Cc1cccc(C)c1[Se]C(Cn1ccnc1)c1ccc(F)cc1F` (stereo not given), the MIC came out at 2 µg/mL in the assay on Candida albicans [1]; 1 µg/mL with Candida albicans [2]; 2 µg/mL with Candida albicans [3]; 0.02 µg/mL (≈ 0.0511 µM) with Pichia kudriavzevii; 0.13 µg/mL (≈ 0.332 µM) in assay [Candida] zeylanoides; 8 µg/mL (≈ 20.4 µM) against Aspergillus fumigatus. Further, the MIC with Nakaseomyces glabratus amounted to 0.5 µg/mL (≈ 1.28 µM); against Candida albicans [5] it was 0.03 µg/mL (≈ 0.0767 µM); against Candida parapsilosis, 0.06 µg/mL (≈ 0.153 µM); against Cryptococcus neoformans, 0.25 µg/mL (≈ 0.639 µM); in the assay on Candida albicans [6], 0.02 µg/mL (≈ 0.0511 µM); in the assay on Candida albicans [8], 8 µg/mL. In addition, in the assay on Candida albicans [9], the MIC came to 0.25 µg/mL. Besides, the Ratio in the assay with Candida albicans [4] and with Candida albicans [7] was 8 throughout.
